Test results published in PubChem BioAssay (NCI).
Where “and” joins values, the source holds several entries; their conditions need not be identical. Identical values can stand only once.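 Growth conditions: 96-well plates. Treatment: test compound, 48 hours, 5 concentrations. Analysis: linear interpolation between bracketing concentrations; unreached endpoints set to highest concentration. GI50 is the concentration that inhibits growth by half. The concentration for full growth arrest is given as TGI.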

How the values were obtained:
Test in all cases: NCI tumour cell line growth inhibition, 48 h
RXF 393 renal = test system: RXF 393 renal
UO-31 renal = test system: UO-31 renal
SNB-19 CNS = test system: SNB-19 CNS
COLO 205 colon = test system: COLO 205 colon
HT29 colon = test system: HT29 colon
HOP-62 NSCLC = test system: HOP-62 NSCLC
K-562 leukemia = test system: K-562 leukemia
HL-60(TB) leukemia = test system: HL-60(TB) leukemia
A498 renal = test system: A498 renal
DU-145 prostate = test system: DU-145 prostate

| SMILES | TGI (RXF 393 renal) | GI50 (UO-31 renal) | TGI (UO-31 renal) | GI50 (SNB-19 CNS) | TGI (SNB-19 CNS) | TGI (COLO 205 colon) | TGI (HT29 colon) | TGI (HOP-62 NSCLC) | GI50 (K-562 leukemia) | TGI (K-562 leukemia) | GI50 (HL-60(TB) leukemia) | TGI (HL-60(TB) leukemia) | TGI (A498 renal) | TGI (DU-145 prostate) [µM] | GI50 (RXF 393 renal) [µM] | GI50 (DU-145 prostate) [µM] | GI50 (HT29 colon) [µM] | GI50 (HOP-62 NSCLC) [µM] | GI50 (A498 renal) [µM] | GI50 (COLO 205 colon) [µM] |
| --- | --- | --- | --- | --- | --- | --- | --- | --- | --- | --- | --- | --- | --- | --- | --- | --- | --- | --- | --- | --- |
| CC1(O)CC2C(CC1SCc1ccccc1)C2(C)C (stereo not drawn) | 35.6 µM and 28.6 µM | 31.2 µM and 14.5 µM | > 100 µM and 27.9 µM | 45.2 µM and 16.7 µM | > 100 µM and 30.7 µM | 35.6 µM and 30.6 µM | 49.1 µM and 29.9 µM | 57.9 µM and 30.5 µM | 33.3 µM and 12.3 µM | > 100 µM and 32.1 µM | 28.3 µM and 10.2 µM | > 100 µM and 33.8 µM | 57.9 µM and 32.5 µM | – | – | – | – | – | – | – |
| Cc1cc(N(CCC#N)CCC#N)ccc1/C=C1N=C(/C=C\c2ccccc2)N(c2ccc(C(=O)O)cc2)C\1=O | – | – | > 100 µM | – | > 100 µM | > 100 µM | > 100 µM | > 100 µM | – | > 100 µM | – | > 100 µM | > 100 µM | – | – | – | – | – | – | – |
| C=C(/C=C/C=C(\CO)CCC=C(C)C)[C@H]1CCC2([C@H](CCCO)/C(=C(/C)C=O)CC[C@]2(C)O)[C@H]1O (stereo partly drawn) | – | – | – | – | > 100 µM | > 100 µM | > 100 µM | > 100 µM | – | > 100 µM | – | > 100 µM | > 100 µM | – | – | – | – | – | – | – |
| CC1(C)N=C(N)N=C(N)N1c1ccc(CCCCCCc2ccc(S(=O)(=O)F)cc2)cc1 | > 33.1 µM | – | 29.5 µM | – | 5.17 µM | 12.8 µM | 17.1 µM | 15.8 µM | – | > 33.3 µM | – | > 37.3 µM | – | 21.1 | – | – | – | – | – | – |
| O=C(Nc1c(Cl)cc([N+](=O)[O-])cc1Cl)C(=O)C(C(=O)c1ccncc1)C1OC(=O)c2ccccc21 (stereo not drawn) | > 100 µM | – | > 100 µM | – | > 100 µM | > 100 µM | > 100 µM | > 100 µM | – | > 100 µM | – | > 100 µM | > 100 µM | – | – | – | – | – | – | – |
| Nc1nc2c([nH]1)c1[nH]c3ccccc3c1c1[nH]c3ccccc3c21 | 19.4 µM | 11 µM | 22.9 µM | 12.8 µM | 25.5 µM | – | 17.4 µM | 27.3 µM | 2.23 µM | 5.09 µM | 18.4 µM | 38.1 µM | 35 µM | 26.4 | 6.08 | 13.5 | 5.5 | 13.8 | 18.8 | – |
| O=C1Cc2c([nH]c3ccccc23)-c2cc(Br)ccc2N1 | > 100 µM | – | > 100 µM | – | > 100 µM | > 100 µM | > 100 µM | > 100 µM | – | > 100 µM | – | > 100 µM | > 100 µM | – | – | – | – | – | – | – |
| COc1cc([C@H]2c3cc4c(cc3[C@H](NCc3ccc(F)cc3)C3COC(=O)[C@H]32)OCO4)cc(OC)c1O (stereo partly drawn) | 42.8 µM | – | 14.9 µM | – | 51.2 µM | 31.5 µM | 27 µM | 3.82 µM | – | 41 µM | – | 4.7 µM | 8.02 µM | – | – | – | – | – | – | – |
| CC1(C)O[C@@H](CCl)C[C@@H](C#N)O1 | > 100 µM | – | > 100 µM | – | > 100 µM | > 100 µM | > 100 µM | > 100 µM | – | > 100 µM | – | > 100 µM | > 100 µM | – | – | – | – | – | – | – |
| COc1ccc(C2NC(c3ccc(OC)cc3)C(C)C(=O)C2C)cc1 (stereo not drawn) | > 100 µM | – | > 100 µM | – | > 100 µM | > 100 µM | > 100 µM | > 100 µM | – | > 100 µM | – | > 100 µM | > 100 µM | – | – | – | – | – | – | – |
| c1ccc(-c2nc3ccccc3[nH]2)c(OCCCCCOc2ccccc2-c2nc3ccccc3[nH]2)c1 | – | 11 µM | 36 µM | 14.4 µM | 31.9 µM | 31.9 µM | 44.1 µM | 52.5 µM | 4.35 µM | > 100 µM | 2.57 µM | 7.76 µM | 25.5 µM | 14.8 | – | 3.82 | 12.1 | 22.1 | 12.1 | 8.49 |
| COc1ccc(S(=O)(=O)NNS(C)(=O)=O)cc1OC | > 100 µM | – | > 100 µM | – | > 100 µM | > 100 µM | > 100 µM | > 100 µM | – | > 100 µM | – | > 100 µM | > 100 µM | – | – | – | – | – | – | – |
| NC(=O)C1C(=O)Oc2cccnc21 (stereo not drawn) | > 100 µM | – | > 100 µM | – | > 100 µM | > 100 µM | > 100 µM | > 100 µM | – | > 100 µM | – | – | – | – | – | – | – | – | – | – |
| CCOC(=O)c1cnc2c(ccc3ncccc32)c1OCC | > 100 µM | – | > 100 µM | – | > 100 µM | > 100 µM | > 100 µM | > 100 µM | – | > 100 µM | – | > 100 µM | > 100 µM | – | – | – | – | – | – | – |
| O=C(/C=N/O)Nc1cccc(Cl)c1I | 74.9 µM | – | 78.3 µM | – | > 100 µM | > 100 µM | > 100 µM | > 100 µM | – | > 100 µM | – | > 100 µM | > 100 µM | – | – | – | – | – | – | – |
| COc1ccc(/C(C#N)=C2/O/C(=N/N)C(c3ccc(OC)c(OC)c3)C2=O)cc1OC (stereo not drawn) | – | – | > 100 µM | – | – | – | > 100 µM | – | – | > 100 µM | – | > 100 µM | – | – | – | – | – | – | – | – |
| CNC(=O)N(CCCCC(NC(C)=O)C(=O)NCc1ccccc1)Cc1ccccc1 (stereo not drawn) | > 100 µM | – | > 100 µM | – | > 100 µM | > 100 µM | > 100 µM | > 100 µM | – | > 100 µM | – | – | > 100 µM | – | – | – | – | – | – | – |
| Nc1c([N+](=O)[O-])ncn1C1OC(CO)C(O)C1O (stereo not drawn) | > 100 µM | > 100 µM | > 100 µM | > 100 µM | > 100 µM | > 100 µM | > 100 µM | > 100 µM | > 100 µM | > 100 µM | – | – | > 100 µM | > 100 | > 100 | > 100 | > 100 | > 100 | > 100 | > 100 |
| COc1cc(COC(=O)N(C)[C@@H](Cc2ccccc2)C(=O)O)c([N+](=O)[O-])cc1OC | – | – | > 100 µM | – | > 100 µM | – | > 100 µM | > 100 µM | – | > 100 µM | – | > 100 µM | – | > 100 | – | – | – | – | – | – |
| Cc1c(C(=O)/C=C/c2ccc3c(c2)OCO3)[n+](=O)c2ccccc2n1[O-] | 54.1 µM | – | 97.4 µM | – | > 100 µM | 78.7 µM | 56.4 µM | > 100 µM | – | > 100 µM | – | > 100 µM | 64 µM | – | – | – | – | – | – | – |
